Assays:
[1] = target: Gastrin/cholecystokinin type B receptor (Cavia porcellus); assay: Inhibition of [125I]Cholecystokinin-8 binding to Cholecystokinin type B receptor of guinea pig cerebral cortical membranes
[2] = Inhibition of [125I]-Cholecystokinin-8 (125I-CCK-8) binding to Cholecystokinin type B receptor of guinea pig cerebral cortical membranes

SMILES	IC50 [1]	IC50 [2]
CC(=O)c1cccc(NC(=O)NC2N=C(c3ccccc3F)c3cccc(C)c3N(CC(=O)N3CC4CCC(CC4)C3)C2=O)c1 (centres undefined) [1-(3-Acetyl-phenyl)-3-[1-[2-(3-aza-bicyclo[3.2.2]non-3-yl)-2-oxo-ethyl]-5-(2-fluoro-phenyl)-9-methyl-2-oxo-2,3-dihydro-1H-benzo[e][1,4]diazepin-3-yl]-urea]	0.84 nM	–
Cc1cccc2c1N(CC(=O)N1CC3CCC(CC3)C1)C(=O)C(NC(=O)Nc1cccc(Br)c1)N=C2c1ccccc1F (centres undefined) [1-[1-[2-(3-Aza-bicyclo[3.2.2]non-3-yl)-2-oxo-ethyl]-5-(2-fluoro-phenyl)-9-methyl-2-oxo-2,3-dihydro-1H-benzo[e][1,4]diazepin-3-yl]-3-(3-bromo-phenyl)-urea]	1.8 nM	–
Cc1cccc2c1N(CC(=O)N1CC3CCC(CC3)C1)C(=O)C(NC(=O)Nc1cccc(Cl)c1)N=C2c1ccccc1F (centres undefined) [1-[1-[2-(3-Aza-bicyclo[3.2.2]non-3-yl)-2-oxo-ethyl]-5-(2-fluoro-phenyl)-9-methyl-2-oxo-2,3-dihydro-1H-benzo[e][1,4]diazepin-3-yl]-3-(3-chloro-phenyl)-urea]	2 nM	–
COc1cccc(NC(=O)NC2N=C(c3ccccc3F)c3cccc(C)c3N(CC(=O)N3CC4CCC(CC4)C3)C2=O)c1 (centres undefined) [1-[1-[2-(3-Aza-bicyclo[3.2.2]non-3-yl)-2-oxo-ethyl]-5-(2-fluoro-phenyl)-9-methyl-2-oxo-2,3-dihydro-1H-benzo[e][1,4]diazepin-3-yl]-3-(3-methoxy-phenyl)-urea]	1 nM	–
CSc1cccc(NC(=O)NC2N=C(c3ccccc3F)c3cccc(C)c3N(CC(=O)N3CC4CCC(CC4)C3)C2=O)c1 (centres undefined) [1-[1-[2-(3-Aza-bicyclo[3.2.2]non-3-yl)-2-oxo-ethyl]-5-(2-fluoro-phenyl)-9-methyl-2-oxo-2,3-dihydro-1H-benzo[e][1,4]diazepin-3-yl]-3-(3-methylsulfanyl-phenyl)-urea]	0.37 nM	–
Cc1cccc2c1N(CC(=O)N1CC3CCC(CC3)C1)C(=O)C(NC(=O)Nc1cccc(-c3nnn[nH]3)c1)N=C2c1ccccc1F (centres undefined) [1-[1-[2-(3-Aza-bicyclo[3.2.2]non-3-yl)-2-oxo-ethyl]-5-(2-fluoro-phenyl)-9-methyl-2-oxo-2,3-dihydro-1H-benzo[e][1,4]diazepin-3-yl]-3-[3-(1H-tetrazol-5-yl)-phenyl]-urea]	–	6.4 nM
Cc1cccc(NC(=O)NC2N=C(c3ccccc3F)c3cccc(C)c3N(CC(=O)N3CC4CCC(CC4)C3)C2=O)c1 (centres undefined) [1-[1-[2-(3-Aza-bicyclo[3.2.2]non-3-yl)-2-oxo-ethyl]-5-(2-fluoro-phenyl)-9-methyl-2-oxo-2,3-dihydro-1H-benzo[e][1,4]diazepin-3-yl]-3-m-tolyl-urea]	0.47 nM	–
Cc1cccc2c1N(CC(=O)N1CC3CCC(CC3)C1)C(=O)C(NC(=O)Nc1cccc(C(=O)O)c1)N=C2c1ccccc1F (centres undefined) [3-{3-[1-[2-(3-Aza-bicyclo[3.2.2]non-3-yl)-2-oxo-ethyl]-5-(2-fluoro-phenyl)-9-methyl-2-oxo-2,3-dihydro-1H-benzo[e][1,4]diazepin-3-yl]-ureido}-benzoic acid]	0.96 nM	–
Cc1cccc(NC(=O)NC2N=C(c3ccccc3F)c3ccccc3N(CC(=O)N3CC4CCC(CC4)C3)C2=O)c1 (centres undefined) [FR-175985]	0.087 nM	–

— BindingDB's records for doi:10.1016/S0960-894X(96)00609-9 (1997)
